Measurements from patent US11402367B2, “Integrated multi-electrode array and trans-endothelial electrical resistance in organ-on-a-chip microsystems” (President and Fellows of Harvard College, priority 2017, dated 2022).

Legend:
[1] = tested on: endothelial layer (HUVECs); experiment: TEER and capacitance measurement of the endothelial layer in the MEA-TEER Heart-on-Chip; assay type: cell-based, human; conditions: for effect on TEER values / endothelial barrier: TNF-α 2 μg/mL overnight, isoproterenol 50 nM, 30 minutes, FIG. 5A, 5B
Experimental: The MEA-TEER chips are surface-treated with an oxygen plasma (Atto, Diener electronic GmbH, Germany at O2, 15 standard cubic centimeters per minute (“sccm”), 100 Watts, 30 seconds) to create hydrophilic, sterile, flow systems. Both apical and basal channels 116, 117, 216, 217 are coated overnight with human fibronectin (Sigma at 100 micrograms (“μg”/mL in PBS with Mg^2+ and Ca^2+ at 4° C.). HUVECs were seeded at 2*10^6 cell per mL in the apical microchannel, and, then, left static overnight.
(§1) Cardiomyocytes are seeded at 2*10^6 cell per mL in the basal microchannel, followed by 3 hours to overnight inculcation, before connecting both channels 116, 117, 216, 217 to flow at 60 microliters (“μL”)/hr. Flow is controlled by a peristaltic pump (Ismatech) and connections re in Pharmed tubing (Cole-Parmer) having a 0.511 inner diameter. […] To challenge the endothelial barrier TNF (Sigma) is added at 2 μg/mL in the bottom microchannel 117, 217 during overnight flow. Isoproterenol (Sigma) 50 nanomolar (“nM”) is added to the endothelial microchannel for 30 minutes followed by MEA measurement.
TEER measurements are carried out by applying a 10 microamperes (“μA”) sinusoidal excitation signal in a four-electrode set-up in the frequency range 100 KHz-10 hertz (“Hz”). AC measurements are preferable for TEER measurements to avoid charging effects over the cell membranes and the electrodes. The four-electrode set-up, utilizing one opposing pair of electrodes for current excitation and another opposing pair of electrodes for voltage sensing, provides benefits of eliminating contact resistance associated with two electrode measurements.
TEER and capacitance values are derived using the equivalent circuit and model depicted in FIGS. 3A, 6A, and 6B. A resistor Rsol describes the solution conductivity, while the electric response of the endothelial layer is modeled using a resistor (RTEER) and a constant phase element (CPEt) in parallel to extract TEER of the cell-cell junctions, as well as the contribution of cell membrane capacitance and, indirectly, the overall monolayer surface area.

hamster cardiomyocytes = conditions: TNF-α at 200 nanograms/ml^3; cited from earlier work
[2] = tested on: endothelial layer (HUVECs); assay type: cell-based, human; conditions: adherens junction staining; FIGS. 4A-4C, 9A-9B, 10A-10C
Experimental: Cardiomyocytes are seeded at 2*10^6 cell per mL in the basal microchannel, followed by 3 hours to overnight inculcation, before connecting both channels 116, 117, 216, 217 to flow at 60 microliters (“μL”)/hr. Flow is controlled by a peristaltic pump ([…]) and connections re in […] tubing (Cole-Parmer) having a 0.511 inner diameter. […] To challenge the endothelial barrier TNF (Sigma) is added at 2 μg/mL in the bottom microchannel 117, 217 during overnight flow. Isoproterenol (Sigma) 50 nanomolar (“nM”) is added to the endothelial microchannel for 30 minutes followed by MEA measurement. Chips are rinsed in phosphate-buffered saline and fixated in 4% paraformaldehyde (Sigma) for 15 minutes at room temperature. ICC is carried out after permeabilization in phosphate-buffered saline with 0.05-0.1% Triton X-100 (Sigma) and blocking for 30 minutes in 3-5% Bovine Serum Albumin (Jackson ImmunoResearch, West Grove, Pa.) or 10% goat serum in phosphate-buffered saline with 0.05-0.1% Triton-X 100. Primary antibodies are applied in 2% goat serum or 0.5% BSA over-night at 4° C. or at RT The following primary antibodies are used for ICC experiments: mouse anti-vascular endothelial (VE)-cadherin (Abcam, 1:100), alpha-actinin (Abcam, 1:200) Cells are washed three times in phosphate-buffered saline with 0.05-0.1% Triton-X 100, followed by staining with secondary antibody staining for 30-60 min at RT. […]

[3] = 100 nM isoproterenol; mono-channel fluidic system; cited from earlier work
[4] = tested on: myocardial tissue (cardiomyocytes); experiment: Immunohistochemistry of myocardial tissue on the MEA platform (alpha-actinin); assay type: cell-based, human; conditions: isoproterenol treatment; FIGS. 4D-4E
Experimental: as §1
Chips are rinsed in phosphate-buffered saline and fixated in 4% paraformaldehyde (Sigma) for 15 minutes at room temperature. ICC is carried out after permeabilization in phosphate-buffered saline with 0.05-0.1% Triton X-100 (Sigma) and blocking for 30 minutes in 3-5% Bovine Serum Albumin (Jackson ImmunoResearch, West Grove, Pa.) or 10% goat serum in phosphate-buffered saline with 0.05-0.1% Triton-X 100. Primary antibodies are applied in 2% goat serum or 0.5% BSA over-night at 4° C. or at RT […]

[5] = tested on: human induced pluripotent stem cell-derived cardiomyocytes (hiPSC-CMs, Cor.4U); experiment: MEA measurement of cardiac field potentials in the MEA-TEER Heart-on-Chip; assay type: cell-based; conditions: isoproterenol 50 nM; basal beat rate 60 beats per minute; FIG. 5C
Description: HUVECs (Lonza) were expanded in EGM media (Lonza) and used at passages 2-6 in the chip experiments. Human induced pluripotent stem cell-derived cardiomyocytes hiPSC-CMs, Cor.4U, Axiogenesis) were handled according to the vendor's instructions and used a passage 1 after thawing. Briefly, cryopreserved cells were thawed on fibronectin-coated cell culture vessels in the presence of 5 […] puromycin to select for MYH6-positive cells. Three hours after thawing, the puromycin containing media was gently refreshed to wash out remaining cryopreservant (DMSO). Twenty-four hours after seeding, cell culture media was refreshed without puromycin. The following day, the cardiomyocytes were replated into the chips using 0.5% trypsin. […]
Spontaneous cardiac field potentials (“FPs”) are recorded from cardiomyocytes using Platinum and Platinum Black MEAs with the commercial Multi-Channel-System USB-MEA60-Inv-BC-System, Multi-Channel-Systems (MCS) GmbH. […] Cardiac FPs are recorded for 120 seconds for each measurement using Cardio2D software and are analyzed with Cardio2D+ (both from Multi Channel Systems). Measured parameters, including FP duration (FPD, milliseconds), peak-to-peak interval (PPI, seconds), beating rate (beats per minute), and conduction velocity (CV, centimer s_1) are exported into Microsoft Excel files for further analysis. […]

For TNF-α, the “effect on TEER values / endothelial barrier” value [1] was “TEER values decrease to the same values as ECM-coated chips without cells chip”, the “capacitance after the TNF-α challenge” value ([1]; TNF-α 2 μg/mL, from 194±33 nF after stabilization at day 2) was 2968±52 nF and the “effect on TEER capacitance” value ([1]; TNF-α addition, FIG. 5B) was “increasing the capacitance significantly”. The “TEER values after TNF-α challenge” value ([1]; after 24 hours TNF-α 2 μg/mL, dropping from 230±45 Ω before challenge, p<0.01) was 15±13 Ω and the “contractility of hamster cardiomyocytes” value (hamster cardiomyocytes) was “reduce contractility”.

In the case of `CC(C)NCC(O)c1ccc(O)c(O)c1` (stereo not shown) [isoproterenol], the “integrity of the endothelial barrier by ICC” value [2] is listed as “does not show any change in integrity of a barrier”, the “effect on TEER values / endothelial barrier” value [1] is listed as “does not affect the endothelial barrier” and the “change of beat rate” value [3] is listed as 60%. For the same compound, the “changes of cardiomyocytes by IHC versus control” value [4] was “do not show major changes” and the “increase in beat rate” value [5] was 60%.
